Assay results as given in PubChem BioAssay AID238 (DTP/NCI, 2004).
Where “and” joins values, the source holds several entries; their conditions need not be identical. Equal entries are not always repeated. Toxic doses and inconclusive results are not listed.

System: CAF1 mice, leiomyosarcoma No.2 ip, survival T/C%
Test: NCI In Vivo Anticancer Drug Screen. Data for tumor model Leiomyosarcoma (No. 2) (intraperitoneal) in CAF1 mice
Conditions: endpoint: mean survival time, higher = longer survival
Method: The antitumor activity of compounds was measured in mice bearing transplantable tumors. Survival or tumor size were measured and the results are expressed as the measurement made in the treated group (T) divided by the measurement made in the vehicle treated control group (C). The tumor model used in this assay is Leiomyosarcoma (No. 2) (intraperitoneal) in CAF1 mice

[1] = dose: 6.25 mg/kg/injection, schedule: Q01DX010 (ip), vehicle: saline
[2] = dose: 12.5 mg/kg/injection, schedule: Q01DX010 (ip), vehicle: saline
[3] = dose: 3.13 mg/kg/injection, schedule: Q01DX010 (ip), vehicle: saline
[4] = dose: 25.0 mg/kg/injection, schedule: Q01DX010 (ip), vehicle: saline
[5] = dose: 31.3 mg/kg/injection, schedule: Q01DX010 (ip), vehicle: saline
[6] = dose: 1.0 mg/kg/injection, schedule: Q01DX010 (ip), vehicle: saline
[7] = dose: 2.0 mg/kg/injection, schedule: Q01DX010 (ip), vehicle: saline
[8] = dose: 4.0 mg/kg/injection, schedule: Q01DX010 (ip), vehicle: saline
[9] = dose: 8.0 mg/kg/injection, schedule: Q01DX010 (ip), vehicle: saline
[10] = dose: 200.0 mg/kg/injection, schedule: Q01DX010 (ip), vehicle: saline
[11] = dose: 50.0 mg/kg/injection, schedule: Q01DX010 (ip), vehicle: saline
[12] = dose: 100.0 mg/kg/injection, schedule: Q01DX010 (ip), vehicle: saline
[13] = dose: 0.5 mg/kg/injection, schedule: Q01DX010 (ip), vehicle: saline
[14] = dose: 16.0 mg/kg/injection, schedule: Q01DX010 (ip), vehicle: saline
[15] = dose: 32.0 mg/kg/injection, schedule: Q01DX010 (ip), vehicle: saline
[16] = dose: 15.6 mg/kg/injection, schedule: Q01DX010 (ip), vehicle: saline
[17] = dose: 62.5 mg/kg/injection, schedule: Q01DX010 (ip), vehicle: saline
[18] = dose: 12.5 mg/kg/injection, schedule: Q01DX010 (sc), vehicle: steriod suspending solution
[19] = dose: 25.0 mg/kg/injection, schedule: Q01DX010 (sc), vehicle: steriod suspending solution
[20] = dose: 50.0 mg/kg/injection, schedule: Q01DX010 (sc), vehicle: steriod suspending solution
[21] = dose: 100.0 mg/kg/injection, schedule: Q01DX010 (sc), vehicle: steriod suspending solution
[22] = dose: 2.5 mg/kg/injection, schedule: Q01DX010 (ip), vehicle: saline
[23] = dose: 5.0 mg/kg/injection, schedule: Q01DX010 (ip), vehicle: saline
[24] = dose: 10.0 mg/kg/injection, schedule: Q01DX010 (ip), vehicle: saline
[25] = dose: 20.0 mg/kg/injection, schedule: Q01DX010 (ip), vehicle: saline
[26] = dose: 1.25 mg/kg/injection, schedule: Q01DX010 (ip), vehicle: saline

`O=C(O)CCCc1ccc(N(CCCl)CCCl)cc1` was tested, and the T/C [1] was 153 % of control and 279 % of control and the T/C [2] was 203 % of control and 225 % of control.

`C[C@H]1C(=O)O[C@@H]2CCN3CC=C(COC(=O)[C@](C)(O)[C@@]1(C)O)[C@H]23` was tested, and the T/C [3] was 100 % of control, the T/C [1] was 94 % of control and 109 % of control and the T/C [2] was 86 % of control and 118 % of control. For the same compound, the T/C [4] was 108 % of control and 118 % of control.

`COc1ccc2c(c1OC)C(=O)O[C@@H]2[C@H]1c2c(cc3c(c2OC)OCO3)CCN1C` was tested, and the T/C [5] was 92 % of control.

For `Nc1nc(=S)c2ncn(C3OC(CO)C(O)C3O)c2[nH]1` (stereo unspecified), the T/C [6] was 258 % of control, the T/C [7] was 197 % of control and 204 % of control and the T/C [8] was 118 % of control. For the same compound, the T/C [9] was 90 % of control.

For `O=c1cnn(C2OC(CO)C(O)C2O)c(=O)[nH]1` (stereo unspecified), the T/C [10] was 104 % of control and 107 % of control, the T/C (dose: 400.0 mg/kg/injection, schedule: Q01DX010 (ip), vehicle: saline) was 104 % of control and 107 % of control and the T/C (dose: 800.0 mg/kg/injection, schedule: Q01DX010 (ip), vehicle: saline) was 107 % of control and 112 % of control.

For `C#CCN(C)Cc1ccccc1`, the T/C [11] was 102 % of control, the T/C [12] was 88 % of control and the T/C [10] was 91 % of control.

`CS(=O)(=O)OCCN(CCOS(C)(=O)=O)c1ccc(N=O)cc1` was tested, and the T/C (dose: 0.25 mg/kg/injection, schedule: Q01DX010 (ip), vehicle: saline) was 221 % of control, the T/C [13] was 173 % of control and the T/C [6] was 113 % of control.

With `N#CCSc1ncnc2nc[nH]c12` the T/C (dose: 15.0 mg/kg/injection, schedule: Q01DX010 (ip), vehicle: saline) was 86 % of control and 113 % of control, the T/C (dose: 30.0 mg/kg/injection, schedule: Q01DX010 (ip), vehicle: saline) was 118 % of control and 120 % of control and the T/C (dose: 60.0 mg/kg/injection, schedule: Q01DX010 (ip), vehicle: saline) was 113 % of control. The T/C (dose: 120.0 mg/kg/injection, schedule: Q01DX010 (ip), vehicle: saline) was 118 % of control.

For `Nc1nc(F)nc2c1ncn2C1OC(CO)C(O)C1O` (stereo unspecified), the T/C [13] was 104 % of control, the T/C [6] was 104 % of control and 113 % of control and the T/C [7] was 100 % of control and 109 % of control. The T/C [8] was 113 % of control and 118 % of control and the T/C [9] was 86 % of control.

`CS(=O)(=O)OCCC(=O)N1CCN(C(=O)CCOS(C)(=O)=O)CC1` was tested, and the T/C [2] was 172 % of control, the T/C [4] was 224 % of control and the T/C [11] was 232 % of control. For the same compound, the T/C [12] was 304 % of control.

With `Nc1nc2n[nH]nc2c(=O)[nH]1` the T/C (dose: 25.0 mg/kg/injection, schedule: Q01DX010 (ip), vehicle: alkali diluted with saline) was 188 % of control and 225 % of control, the T/C [4] was 253 % of control and the T/C (dose: 50.0 mg/kg/injection, schedule: Q01DX010 (ip), vehicle: alkali diluted with saline) was 180 % of control and 250 % of control. The T/C [11] was 186 % of control, the T/C (dose: 100.0 mg/kg/injection, schedule: Q01DX010 (ip), vehicle: alkali diluted with saline) was 190 % of control and 246 % of control and the T/C (dose: 200.0 mg/kg/injection, schedule: Q01DX010 (ip), vehicle: alkali diluted with saline) was 185 % of control.

`c1ccc(CNc2ncnc3[nH]ncc23)cc1` was tested, and the T/C [9] was 95 % of control and 103 % of control, the T/C [14] was 92 % of control and 100 % of control and the T/C [15] was 92 % of control and 100 % of control. For the same compound, the T/C (dose: 64.0 mg/kg/injection, schedule: Q01DX010 (ip), vehicle: saline) was 95 % of control and 96 % of control.

With `CCn1cnc2c(=S)nc[nH]c21` the T/C [16] was 100 % of control and 108 % of control, the T/C [5] was 96 % of control and 100 % of control and the T/C [17] was 100 % of control and 119 % of control. For the same compound, the T/C (dose: 125.0 mg/kg/injection, schedule: Q01DX010 (ip), vehicle: saline) was 112 % of control.

In the case of `Nc1nc(N)c2nc(CNc3ccc(C(=O)NC(CCC(=O)O)C(=O)O)cc3)cnc2n1` (stereo unspecified), the T/C (dose: 0.03 mg/kg/injection, schedule: Q01DX010 (ip), vehicle: other) is reported as 103 % of control and 110 % of control, the T/C (dose: 0.05 mg/kg/injection, schedule: Q01DX010 (ip), vehicle: other) is reported as 106 % of control and the T/C (dose: 0.1 mg/kg/injection, schedule: Q01DX010 (ip), vehicle: other) is reported as 106 % of control and 107 % of control. For the same compound, the T/C (dose: 0.2 mg/kg/injection, schedule: Q01DX010 (ip), vehicle: other) was 110 % of control.

With `CC(=O)O[C@]1(C(C)=O)CC[C@H]2[C@@H]3C[C@H](C)C4=CC(=O)C=C[C@]4(C)[C@@]3(F)[C@@H](O)C[C@@]21C` the T/C [18] was 96 % of control, the T/C [19] was 104 % of control and the T/C [20] was 88 % of control. The T/C [21] was 88 % of control.

For `CN1CC[C@]23c4c5ccc(O)c4O[C@H]2C(=O)CC[C@H]3[C@H]1C5`, the T/C [8] was 96 % of control, the T/C [9] was 92 % of control and the T/C [14] was 104 % of control. The T/C [15] was 92 % of control.

For `NC(Cc1ccc(N(CCCl)CCCl)cc1)C(=O)O` (stereo unspecified), the T/C [22] was 191 % of control and 265 % of control, the T/C [23] was 166 % of control and 207 % of control and the T/C [24] was 150 % of control and 258 % of control. The T/C [25] was 192 % of control.

With `CCCCOP(=S)(N1CC1)N1CC1` the T/C [8] was 165 % of control, the T/C [9] was 223 % of control and the T/C [14] was 250 % of control.

`Oc1cc(CN(CCCl)CCCl)c(O)cc1CN(CCCl)CCCl` was tested, and the T/C (dose: 0.31 mg/kg/injection, schedule: Q01DX010 (ip), vehicle: saline) was 162 % of control, the T/C (dose: 0.63 mg/kg/injection, schedule: Q01DX010 (ip), vehicle: saline) was 159 % of control and the T/C [26] was 159 % of control and 175 % of control and 184 % of control. The T/C [22] was 186 % of control and the T/C [23] was 118 % of control.

For `S=P(N1CCOCC1)(N1CC1)N1CC1`, the T/C [22] was 96 % of control and 104 % of control, the T/C [23] was 116 % of control and 117 % of control and the T/C [24] was 153 % of control and 179 % of control. For the same compound, the T/C [25] was 164 % of control.

`C=CC(CN1CC1)OC(C)=O` (stereo unspecified) was tested, and the T/C [7] was 104 % of control and the T/C [9] was 176 % of control.

In the case of `O=C(O)c1[nH]c(=O)[nH]c(=O)c1F`, the T/C [26] is reported as 112 % of control, the T/C [22] is reported as 112 % of control and the T/C [23] is reported as 120 % of control. The T/C [24] was 108 % of control.

For `N=[N+]=CC(=O)OCC(N)C(=O)O` (stereo unspecified), the T/C [3] was 96 % of control, the T/C [1] was 104 % of control and the T/C [4] was 96 % of control.

With `O[C@H](CN1CC1)[C@@H](O)CN1CC1` the T/C (dose: 125.0 micrograms/kg/injection, schedule: Q01DX010 (ip), vehicle: saline) was 150 % of control, the T/C (dose: 250.0 micrograms/kg/injection, schedule: Q01DX010 (ip), vehicle: saline) was 179 % of control and the T/C (dose: 500.0 micrograms/kg/injection, schedule: Q01DX010 (ip), vehicle: saline) was 204 % of control.

With `CC/C(=C(/CC)c1ccc(O)cc1)c1ccc(O)cc1` the T/C [18] was 91 % of control and 96 % of control, the T/C [19] was 96 % of control and 100 % of control and the T/C [20] was 91 % of control and 92 % of control. For the same compound, the T/C [21] was 91 % of control and 100 % of control.

`O=c1[nH]cc(F)c(=O)[nH]1` was tested, and the T/C [23] was 195 % of control, the T/C [24] was 213 % of control and 227 % of control and the T/C [25] was 181 % of control and 186 % of control.

For `CCCCNc1ncnc2c1cnn2C`, the T/C [16] was 92 % of control, the T/C [5] was 89 % of control and 103 % of control and the T/C [17] was 90 % of control and 112 % of control.

With `CN(C)c1ccc(/C=C/c2ccnc3ccccc23)cc1` the T/C [23] was 96 % of control and 112 % of control, the T/C [24] was 112 % of control and the T/C [25] was 112 % of control. The T/C (dose: 40.0 mg/kg/injection, schedule: Q01DX010 (ip), vehicle: saline) was 100 % of control.
